Results: ChEMBL document CHEMBL1156432, “Structure and regulation of the human Nek2 centrosomal kinase” (J Biol Chem, 2007)

Experiments:
[1] = target: Platelet-derived growth factor receptor beta (Homo sapiens, UniProt P09619); assay: Inhibition of PDGFRbeta
[2] = target: Vascular endothelial growth factor receptor 2 (Homo sapiens, UniProt P35968); assay: Inhibition of VEGFR2
[3] = target: Epidermal growth factor receptor (Homo sapiens, UniProt P00533); assay: Inhibition of EGFR
[4] = target: Serine/threonine-protein kinase Nek2 (Homo sapiens, UniProt P51955, T175A); assay: Inhibition of human recombinant Nek2 T175A mutant by coupled pyruvate kinase/lactate dehydrogenase assay
[5] = substrate: CC[C@H](C)[C@H](NC(=O)[C@H](CO)NC(=O)[C@H](CO)NC(=O)[C@H](CCCNC(=N)N)NC(=O)[C@H](Cc1ccccc1)NC(=O)[C@@H](NC(=O)CN)[C@@H](C)O)C(=O)N[C@@H](CCCNC(=N)N)C(=O)N[C@@H](CCCNC(=N)N)C(=O)N[C@@H](CC(C)C)C(=O)N[C@@H](CO)C(=O)N[C@H](C(=O)N[C@@H](CCCNC(=N)N)C(=O)N[C@@H](CCCNC(=N)N)C(=O)N[C@@H](CCCNC(=N)N)C(=O)N[C@@H](Cc1ccc(O)cc1)C(=O)O)[C@@H](C)O; assay: Activity of human recombinant Nek2 T175A mutant assessed as substrate phosphorylation

Chain of Epidermal growth factor receptor (P00533 whole entry): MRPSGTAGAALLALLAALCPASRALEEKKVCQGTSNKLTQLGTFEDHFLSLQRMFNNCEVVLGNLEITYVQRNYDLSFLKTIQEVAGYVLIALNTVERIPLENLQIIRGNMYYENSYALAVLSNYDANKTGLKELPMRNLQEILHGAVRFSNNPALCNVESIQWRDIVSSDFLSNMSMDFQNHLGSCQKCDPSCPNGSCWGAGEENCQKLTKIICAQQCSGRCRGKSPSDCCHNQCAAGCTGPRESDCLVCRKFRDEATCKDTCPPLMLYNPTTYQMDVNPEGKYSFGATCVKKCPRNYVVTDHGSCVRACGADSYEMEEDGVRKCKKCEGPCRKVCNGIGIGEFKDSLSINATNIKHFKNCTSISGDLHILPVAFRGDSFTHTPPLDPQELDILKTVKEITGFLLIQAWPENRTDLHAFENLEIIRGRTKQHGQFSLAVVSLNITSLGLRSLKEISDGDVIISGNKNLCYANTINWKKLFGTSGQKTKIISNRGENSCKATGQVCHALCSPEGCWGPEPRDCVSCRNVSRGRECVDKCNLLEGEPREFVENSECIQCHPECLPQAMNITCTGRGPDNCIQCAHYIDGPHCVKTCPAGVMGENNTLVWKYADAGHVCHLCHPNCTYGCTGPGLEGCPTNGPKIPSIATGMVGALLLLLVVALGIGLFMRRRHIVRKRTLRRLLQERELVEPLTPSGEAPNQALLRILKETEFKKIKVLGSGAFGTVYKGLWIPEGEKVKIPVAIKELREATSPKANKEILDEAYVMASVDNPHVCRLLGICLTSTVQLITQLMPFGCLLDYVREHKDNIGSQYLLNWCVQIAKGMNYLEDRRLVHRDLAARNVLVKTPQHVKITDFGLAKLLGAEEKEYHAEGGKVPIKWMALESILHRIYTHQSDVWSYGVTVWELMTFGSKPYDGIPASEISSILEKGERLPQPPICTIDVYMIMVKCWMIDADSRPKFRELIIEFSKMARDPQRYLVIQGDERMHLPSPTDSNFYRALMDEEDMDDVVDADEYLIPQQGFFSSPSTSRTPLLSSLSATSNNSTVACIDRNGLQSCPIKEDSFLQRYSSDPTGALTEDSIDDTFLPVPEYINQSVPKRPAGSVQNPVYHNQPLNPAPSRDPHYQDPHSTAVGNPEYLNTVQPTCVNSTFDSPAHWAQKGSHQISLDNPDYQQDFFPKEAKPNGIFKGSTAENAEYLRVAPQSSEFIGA
Chain of Vascular endothelial growth factor receptor 2 (P35968 whole entry): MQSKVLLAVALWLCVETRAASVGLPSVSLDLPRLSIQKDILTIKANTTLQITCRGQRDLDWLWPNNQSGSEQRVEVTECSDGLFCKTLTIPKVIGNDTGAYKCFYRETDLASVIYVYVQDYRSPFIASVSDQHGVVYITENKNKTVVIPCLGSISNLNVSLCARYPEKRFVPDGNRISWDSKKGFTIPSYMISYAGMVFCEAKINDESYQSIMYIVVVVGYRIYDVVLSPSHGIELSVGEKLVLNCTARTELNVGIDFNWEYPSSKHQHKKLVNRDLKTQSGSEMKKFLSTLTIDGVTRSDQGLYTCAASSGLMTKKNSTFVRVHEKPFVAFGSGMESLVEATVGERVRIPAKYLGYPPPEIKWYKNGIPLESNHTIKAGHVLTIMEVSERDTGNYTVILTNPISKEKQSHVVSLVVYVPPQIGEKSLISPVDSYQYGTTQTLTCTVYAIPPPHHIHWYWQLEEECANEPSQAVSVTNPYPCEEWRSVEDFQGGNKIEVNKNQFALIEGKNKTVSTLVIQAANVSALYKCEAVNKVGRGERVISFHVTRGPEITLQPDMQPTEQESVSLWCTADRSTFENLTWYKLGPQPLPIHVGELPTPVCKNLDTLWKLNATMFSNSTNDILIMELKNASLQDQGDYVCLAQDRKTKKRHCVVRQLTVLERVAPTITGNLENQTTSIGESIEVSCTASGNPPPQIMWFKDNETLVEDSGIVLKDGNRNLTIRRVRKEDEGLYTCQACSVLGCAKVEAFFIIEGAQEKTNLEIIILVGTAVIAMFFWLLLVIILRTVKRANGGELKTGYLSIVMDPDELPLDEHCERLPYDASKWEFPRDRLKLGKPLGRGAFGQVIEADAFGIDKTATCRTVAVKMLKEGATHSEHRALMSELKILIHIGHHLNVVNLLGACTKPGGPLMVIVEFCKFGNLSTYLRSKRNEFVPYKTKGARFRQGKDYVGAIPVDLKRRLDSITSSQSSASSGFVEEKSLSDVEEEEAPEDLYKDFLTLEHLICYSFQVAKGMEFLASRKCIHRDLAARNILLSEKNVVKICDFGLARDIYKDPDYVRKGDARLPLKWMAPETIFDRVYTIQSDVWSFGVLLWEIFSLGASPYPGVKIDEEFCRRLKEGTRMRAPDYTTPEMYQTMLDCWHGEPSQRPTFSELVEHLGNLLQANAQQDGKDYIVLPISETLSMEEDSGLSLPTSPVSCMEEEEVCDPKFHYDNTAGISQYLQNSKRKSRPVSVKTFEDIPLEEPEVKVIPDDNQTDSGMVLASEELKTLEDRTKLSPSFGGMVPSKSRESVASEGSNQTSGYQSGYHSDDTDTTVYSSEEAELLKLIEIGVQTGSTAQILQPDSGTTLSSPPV
Chain of Platelet-derived growth factor receptor beta (P09619 whole entry): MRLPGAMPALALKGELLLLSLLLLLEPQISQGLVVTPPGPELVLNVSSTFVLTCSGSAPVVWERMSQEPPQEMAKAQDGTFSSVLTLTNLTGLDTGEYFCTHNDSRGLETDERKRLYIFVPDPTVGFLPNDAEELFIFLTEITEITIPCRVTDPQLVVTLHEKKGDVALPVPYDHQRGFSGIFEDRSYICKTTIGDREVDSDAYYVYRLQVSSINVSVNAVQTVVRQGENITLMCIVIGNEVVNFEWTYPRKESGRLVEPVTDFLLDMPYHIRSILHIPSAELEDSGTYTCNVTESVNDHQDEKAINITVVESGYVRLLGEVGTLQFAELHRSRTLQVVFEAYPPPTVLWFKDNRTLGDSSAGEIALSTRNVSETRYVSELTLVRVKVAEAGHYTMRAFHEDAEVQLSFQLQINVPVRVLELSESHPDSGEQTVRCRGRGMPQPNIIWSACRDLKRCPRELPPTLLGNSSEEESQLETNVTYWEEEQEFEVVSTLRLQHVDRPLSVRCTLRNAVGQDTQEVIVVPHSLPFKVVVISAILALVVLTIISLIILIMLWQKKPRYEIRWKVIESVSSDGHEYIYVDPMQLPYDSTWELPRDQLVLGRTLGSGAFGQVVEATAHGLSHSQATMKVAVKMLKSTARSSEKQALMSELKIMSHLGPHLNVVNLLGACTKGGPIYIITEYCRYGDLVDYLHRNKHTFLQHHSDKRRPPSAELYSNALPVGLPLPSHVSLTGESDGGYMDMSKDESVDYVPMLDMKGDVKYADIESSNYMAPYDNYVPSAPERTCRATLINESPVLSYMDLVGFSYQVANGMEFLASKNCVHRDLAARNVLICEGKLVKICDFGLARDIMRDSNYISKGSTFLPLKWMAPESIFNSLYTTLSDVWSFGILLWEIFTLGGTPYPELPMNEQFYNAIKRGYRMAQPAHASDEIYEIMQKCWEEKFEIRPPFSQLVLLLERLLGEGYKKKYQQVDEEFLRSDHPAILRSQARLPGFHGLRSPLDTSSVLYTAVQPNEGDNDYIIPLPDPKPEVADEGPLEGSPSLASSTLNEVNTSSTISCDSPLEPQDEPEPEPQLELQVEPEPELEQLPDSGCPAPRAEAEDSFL

## CCN(CC)CCNC(=O)c1c(C)[nH]c(/C=C2\C(=O)Nc3ccc(Cl)cc32)c1C [SU-11652]
[1]
  IC50: 3 µM
[2]
  IC50: 3 µM
[3]
  IC50: 3 µM
[4]
  IC50: 8 µM

B1: Serine/threonine-protein kinase Nek2 (Homo sapiens), P51955 T175A (protein)
chain: MPSRAEDYEVLYTIGTGSYGRCQKIRRKSDGKILVWKELDYGSMTEAEKQMLVSEVNLLRELKHPNIVRYYDRIIDRTNTTLYIVMEYCEGGDLASVITKGTKERQYLDEEFVLRVMTQLTLALKECHRRSDGGHTVLHRDLKPANVFLDGKQNVKLGDFGLARILNHDTSFAKAFVGTPYYMSPEQMNRMSYNEKSDIWSLGCLLYELCALMPPFTAFSQKELAGKIREGKFRRIPYRYSDELNEIITRMLNLKDYHRPSVEEILENPLIADLVADEQRRNLERRGRQLGEPEKSQDSSPVLSELKLKEIQLQERERALKAREERLEQKEQELCVRERLAEDKLARAENLLKNYSLLKERKFLSLASNPELLNLPSSVIKKKVHFSGESKENIMRSENSESQLTSKSKCKDLKKRLHAAQLRAQALSDIEKNYQLKSRQILGMR
[5]
  Km: 90 µM
  kcat: 0.283 s⁻¹
